As a reminder, the melting point is the temperature of the solid-liquid transition.

In series [1] the test system is male ICR mice. As to conditions: 30 mg per 1 kg orally once a day during 3 days, plasma at 24 hours after administration, p<0.05.
Protocol: The solution was administered oraly once a day during successive 3 days to male ICR mice (10-week old, n=12). The dosage was 30 mg per 1 kg of body weight. ICR mice administered with vehicle alone were used as control (n=15). At 24 hours after the administration, blood was collected from jugular vein under anesthesia with ether. To the blood were immediately added ethylenediamine tetracetate (EDTA) at a final concentration of 3 mg/ml and aprotinin at a final concentration of 300 KIU/ml. The mixture was centrifuged for 15 minutes at 3000×g, and the concentration of testosterone in the plasma was measured by the radio immunoassay.
The rate of testosterone suppression (%) of the test compound was determined by the formula; 100−(concentration of plasma testosterone in the test group)/(concentration of plasma testosterone in the control group)×100.
Series [2] deals with male SD rats. As to the kind of experiment: Suppression of testosterone concentration in rat plasma. The conditions noted are these: 30 mg per 1 kg once subcutaneously, plasma at 24 hours after administration, p<0.05. The class given is in vivo. How it is done:
The compound 15 produced in Working Example 9 was dissolved in vehicle I (20% propylene glycol-80% physiological saline). The solution was administered once subcutaneously to male SD rats (8-week old, n=5). […] Animals administered with the vehicle alone were used as control.

The test system of series [3] is primary cultured cells of rat pituitary anterior lobes. As to the kind of experiment: Inhibition of LH/FSH secretion by primary cultured cells of rat pituitary anterior lobes. The class given is cell-based. As to conditions: 100 μl of 20 μM compound solution + 100 μl of 5 nM GnRH in 800 μl medium, 37° C. for 3 hours. As to the method:
Anterior lobes of pituitary glands from 40 Wistar rats (8-week old, male) was put into a petri dish containing buffer A (0.7 mM sodium dihydrogen phosphate, 137 mM sodium chloride, 5 mM potassium chloride, 25 mM HEPES, 50 μg/ml gentamicin sulfate), which was once washed with the buffer A, then the anterior lobes were divided into four portions, followed by further washing twice. […] The concentrations of […] and FSH in the supernatant were determined by using the radio immunoassay kit (Amersham Inc.).
By calculating in accordance with the formula; 100−(LH or FSH concentration in the presence of the compound)/(LH or FSH concentration of the control culture)×100, the inhibiting rate (%) of LH or FSH secretion by each compound was determined. […]

Where a name gives a salt, the structure may show the parent alone. Read-outs that look alike come from different tables or passages of the source.

Consider `CCC(=O)Nc1ccc(-c2sc3c(c2CN(C)Cc2ccccc2)c(=O)c(C(=O)c2ccccc2)cn3Cc2c(F)cccc2F)cc1` [Working Example 56, 5-Benzoyl-7-(2,6-difluorobenzyl)-4,7-dihydro-3-(N-methyl-N-benzylaminomethyl)-2-(4-propionylamidophenyl)-4-oxothieno[2,3-b]pyridine], for which the “rate of testosterone suppression (%)” value in series [1] is 85±9.7%.

In turn, `CCOC(=O)c1cn(Cc2ccccc2OC)c2sc(-c3ccc(OC)cc3)c(CN(C)Cc3ccccc3)c2c1=O` (as salt: hydrochloride) [3-(N-benzyl-N-methylaminomethyl)-4,7-dihydro-7-(2-methoxybenzyl)-2-(4-methoxyphenyl)-4-oxothieno[2,3-b]pyridine-5-carboxylic acid ethyl ester] showed a melting point of 147 to 152 °C.

Regarding `CCOC(=O)c1cn(Cc2ccccc2OC)c2sc(-c3ccc(OC)cc3)c(CN(C)Cc3ccccc3)c2c1=O` [3-(N-benzyl-N-methylaminomethyl)-4,7-dihydro-7-(2-methoxybenzyl)-2-(4-methoxyphenyl)-4-oxothieno[2,3-b]pyridine-5-carboxylic acid ethyl ester], in series [2], the “rate of testosterone suppression (%)” value is given as 38±9.7%. The inhibition at 20 µM (stock) in series [3] (p<0.01, n=3, read-out: inhibiting rate (%) of FSH secretion) was 20 ± 10%; in series [3] (p<0.01, n=3, read-out: inhibiting rate (%) of LH secretion), 28 ± 9%.

Values taken from US6514988B1, “Condensed-ring thiophene derivatives, their production and use” (Takeda Chemical Industries, Ltd., priority 1994, dated 2003).
